# Reference: patent publication US9169252B2 (BRISTOL-MYERS SQUIBB COMPANY, priority 2014, dated 2015)
# Read-outs that look alike come from different tables or passages of the source.
# How the values were obtained:
# [1] = system: TLR2 induced IL-6 in peripheral blood mononuclear cells (PBMCs); assay: PBMC TLR2 Induced IL-6 Assay; assay type: cell-based, human; settings: IL-6 by ELISA; for EC50: read-out: Cell EC50; for IC50: read-out: Cell IC50
# In short: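 Lipoteichoic acid at 10 µg/ml served as TLR2 stimulus for 5 hours, following a 30-minute compound pretreatment at 37° C. Cells were Ficoll-isolated human PBMCs, 250000 cells/well, cultured in RPMI plus 10% heat-inactivated FCS.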
# IRAK4 = IRAK4 (Homo sapiens (Human), UniProt Q9NWZ3); assay: IRAK4 Inhibition Assay; assay type: biochemical; settings: ATP 500 μM, read-out: IRAK4 IC50
# In short: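 Mobility-shift readout: fluorescent substrate and phosphoproduct resolved electrophoretically on Caliper LabChip 3000 after EDTA quench (35 mM). Enzyme reaction of IRAK4, substrates and test compound ran 60 min at room temperature.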
# [2] = Homo sapiens, PBMC, PBMC TLR2 Induced IL-6 Assay, lipoteichoic acid stimulation
# [3] = Homo sapiens, PBMC, human PBMCs, lipoteichoic acid stimulated
# Sequence of IRAK4 (Q9NWZ3 whole entry, species assumed): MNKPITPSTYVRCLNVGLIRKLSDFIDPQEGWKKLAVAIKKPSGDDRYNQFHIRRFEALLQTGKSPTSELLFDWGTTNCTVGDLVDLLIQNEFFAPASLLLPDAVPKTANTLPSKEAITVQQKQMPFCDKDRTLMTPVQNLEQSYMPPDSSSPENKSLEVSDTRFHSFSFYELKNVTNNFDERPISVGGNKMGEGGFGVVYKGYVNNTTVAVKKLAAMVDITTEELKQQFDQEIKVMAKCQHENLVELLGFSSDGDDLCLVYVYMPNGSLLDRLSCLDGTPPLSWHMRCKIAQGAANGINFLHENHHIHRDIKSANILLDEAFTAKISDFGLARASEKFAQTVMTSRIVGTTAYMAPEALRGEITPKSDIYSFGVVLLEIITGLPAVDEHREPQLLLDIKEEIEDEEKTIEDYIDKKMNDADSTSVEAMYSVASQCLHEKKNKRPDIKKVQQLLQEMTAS
SMILES,IC50 (IRAK4; IRAK4 Inhibition Assay) [nM],IC50 (IRAK4; IRAK4 0.6 nM) [nM],"EC50 [1, 2] [nM]","IC50 [1, 2] [nM]",also measured
"CC(C)Nc1cc(-n2ccc3cc(C#N)cnc32)ncc1C(=O)N[C@H]1CC[C@](F)(c2ccnn2C)CC1 [Example 174, 6-(5-Cyano-1H-pyrrolo[2,3-b]pyridin-1-yl)-N-((1s,4s)-4-fluoro-4-(1-methyl-1H-pyrazol-5-yl)cyclohexyl)-4-(isopropylamino)nicotinamide]",3.3,–,182,–,–
CC(C)(O)[C@H](F)CNC(=O)c1cnc(-n2cnc3cc(Cl)cnc32)cc1Nc1cnn(CCC#N)c1 [Example 374],3.3,–,–,85,–
"CC(C)Nc1cc(-n2ccc3cc(C#N)cnc32)ncc1C(=O)N[C@H]1CC[C@H](C(C)(C)O)CC1 [Example 96, 6-(5-cyano-1H-pyrrolo[2,3-b]pyridin-1-yl)-N-((trans)-4-(2-hydroxypropan-2-yl)cyclohexyl)-4-(isopropylamino)nicotinamide]",1.4,–,38,–,–
CCCNC(=O)NCc1cnc2c(ccn2-c2cc(NC(C)C)c(C(=O)NC[C@@H](F)C(C)(C)O)cn2)c1 [Example 513],–,5.9,–,–,"IC50 [1, 3]: 389 nM"
CC(=O)N[C@H]1CC[C@H](NC(=O)c2cnc(-n3ncc4cc(C#N)c(N)nc43)cc2NC(C)C)CC1 [Example 317],3.8,–,–,172,–
CC(C)Nc1cc(-n2ccc3cc(CNC(=O)NCc4ccccc4)cnc32)ncc1C(=O)NC[C@@H](F)C(C)(C)O [Example 514],–,8.2,–,–,"IC50 [1, 3]: 47 nM"
"CS(=O)(=O)[C@H]1CC[C@H](NC(=O)c2cnc(-n3ccc4cc(C#N)cnc43)cc2NC2CCOCC2)CC1 [Example 103, 6-(5-Cyano-1H-pyrrolo[2,3-b]pyridin-1-yl)-N-((trans)-4-(methylsulfonyl)cyclohexyl)-4-((tetrahydro-2H-pyran-4-yl)amino)nicotinamide]",3.5,–,125,–,–
CCCCNC(=O)c1cnc(-n2ncc3cc(C#N)c(N)nc32)cc1NC1COC1 [Example 559],–,5.3,–,–,"IC50 [1, 3]: 18 nM"
CC(C)(O)[C@H](F)CNC(=O)c1cnc(N2CCc3cc(C#N)cnc32)cc1NC1COC1 [Example 549],–,16.8,–,–,"EC50 [1, 3]: 413 nM; IC50 [1, 3]: 757 nM"
COc1cccc(Nc2cc(-n3ccc4cc(C#N)cnc43)ncc2C(=O)NC[C@@H](F)C(C)(C)O)c1 [Example 418],–,4.4,–,–,"EC50 [1, 3]: 65 nM"
"CC(C)Nc1cc(-n2ccc3cc(C#N)cnc32)ncc1C(=O)NCCc1ccc(S(N)(=O)=O)cc1 [Example 58, 6-(5-cyano-1H-pyrrolo[2,3-b]pyridin-1-yl)-4-(isopropylamino)-N-(4-sulfamoylphenethyl)nicotinamide]",2.7,–,49,–,–
CS(=O)(=O)NCCNC(=O)c1cnc(-n2ccc3cc(C#N)cnc32)cc1NC1CC1 [Example 453],–,4.4,–,–,"EC50 [1, 3]: 213 nM; IC50 [1, 3]: 326 nM"
"CC(C)Nc1cc(-n2ccc3cc(C#N)cnc32)ncc1C(=O)N[C@H]1CC[C@H](O)CC1 [Example 98, 6-(5-cyano-1H-pyrrolo[2,3-b]pyridin-1-yl)-N-((trans)-4-hydroxycyclohexyl)-4-(isopropylamino)nicotinamide]",3.3,–,176,–,–
"CNC(=O)[C@H]1CC[C@H](NC(=O)c2cnc(-n3ncc4cc(Cl)cnc43)cc2NC(C)C)CC1 [Example 152, 6-(5-chloro-1H-pyrazolo[3,4-b]pyridin-1-yl)-4-(isopropylamino)-N-((trans)-4-(methylcarbamoyl)cyclohexyl)nicotinamide]",5.6,–,294,–,–
CC(C)CCC(=O)NCc1cnc2c(ccn2-c2cc(NC(C)C)c(C(=O)NC[C@@H](F)C(C)(C)O)cn2)c1 [Example 512],–,3.5,–,–,"IC50 [1, 3]: 541 nM"
CC(C)Nc1cc(-n2ncc3cc(C#N)c(N)nc32)ncc1C(=O)NC1(C#N)CC1 [Example 325],6,–,–,227,–
COCCn1cc(Nc2cc(-n3cnc4cc(Cl)cnc43)ncc2C(=O)NC[C@@H](F)C(C)(C)O)cn1 [Example 366],7.9,–,–,205,–

# The next lines start with results.
IC50 (IRAK4; IRAK4 Inhibition Assay) [nM],IC50 (IRAK4; IRAK4 0.6 nM) [nM],SMILES,"EC50 [1, 2] [nM]","IC50 [1, 2] [nM]",also measured
–,6.8,CCOC(=O)N1CC(Nc2cc(-n3ncc4cc(C#N)cnc43)ncc2C(=O)NC[C@@H](F)C(C)(C)O)C1 [Example 543],–,–,"IC50 [1, 3]: 404 nM"
10,–,COC1CCN(c2ccc(NC(=O)c3cnc(-n4ncc5cc(C#N)cnc54)cc3NC(C)C)nc2)CC1 [Example 254],–,496,–
2.8,–,COC(C)(C)[C@H](F)CNC(=O)c1cnc(-n2ncc3cc(C#N)cnc32)cc1NC(C)C [Example 200],79,–,–
14.2,–,CC(C)Nc1cc(-n2ncc3cc(C(F)F)cnc32)ncc1C(=O)NC[C@@H](F)C(C)(C)O [Example 231],237,544,–
11.4,–,CCCNC(=O)c1cnc(-n2ncc3cc(C#N)c(N)nc32)cc1NC(C)C [Example 326],–,30,–
13.7,–,CC(C)Nc1cc(-n2ncc3cc(C#N)cnc32)ncc1C(=O)NC[C@@H](F)C(C)(C)OC(F)F [Example 314],–,420,–
9,–,"CC(C)Nc1cc(-n2ncc3cc(Cl)cnc32)ncc1C(=O)N[C@H]1CC[C@H](C(C)(C)O)CC1 [Example 150, 6-(5-chloro-1H-pyrazolo[3,4-b]pyridin-1-yl)-N-((trans)-4-(2-hydroxypropan-2-yl)cyclohexyl)-4-(isopropylamino)nicotinamide]",593,–,–
19.4,–,COc1cnc2c(cnn2-c2cc(NC(C)C)c(C(=O)NC[C@@H](F)C(C)(C)O)cn2)c1 [Example 195],340,647,–
9.1,–,"CC(C)Nc1cc(-n2ncc3cc(C#N)cnc32)ncc1C(=O)NC1CCc2nc(N)sc2C1 (centres unmarked) [Example 165, N-(2-amino-4,5,6,7-tetrahydrobenzo[d]thiazol-6-yl)-6-(5-cyano-1H-pyrazolo[3,4-b]pyridin-1-yl)-4-(isopropylamino)nicotinamide]",172,–,–
2.3,–,"CC(C)Nc1cc(-n2ncc3cc(C#N)cnc32)ncc1C(=O)NC[C@@H](F)C(O)C(C)C (single isomer, unassigned) [Example 232]",33,211,–
3.6,–,CC(C)Nc1cc(-n2ncc3cc(C#N)cnc32)ncc1C(=O)NCCc1ccc(N(S(C)(=O)=O)S(C)(=O)=O)cc1 [Example 269],–,171,–
–,9.6,CC(C)(O)[C@H](F)CNC(=O)c1cnc(-n2ncc3cc(C#N)cnc32)cc1N[C@@H]1CCN(C(=O)c2ccc(F)cc2F)C1 [Example 538],–,–,"IC50 [1, 3]: 698 nM"
11.2,–,CC(C)NC(=O)c1cnc(-n2ncc3cc(C#N)cnc32)cc1Nc1cnn(CC(F)F)c1 [Example 388],–,245,–
15.7,–,CC(C)Nc1cc(-n2ncc3cc(C#N)cnc32)ncc1C(=O)N[C@@H]1CCCN(S(C)(=O)=O)C1 [Example 245],233,–,–
–,16.6,CC(C)(O)[C@H](F)CNC(=O)c1cnc(-n2ncc3cc(F)cnc32)cc1NC1CCCOC1 (some centres unmarked) [Example 547],–,–,"EC50 [1, 3]: 65 nM; IC50 [1, 3]: 591 nM"
–,5.8,CC(C)(C)CNc1cc(-n2ncc3cc(C#N)cnc32)ncc1C(=O)NC[C@@H](F)C(C)(C)O [Example 576],–,–,"IC50 [1, 3]: 153 nM"
9.2,–,CNC(=O)c1cnc(-n2ncc3cc(C#N)c(N)nc32)cc1NC(C)C [Example 305],–,207,–
–,4,CC(C)(O)[C@H](F)CNC(=O)c1cnc(-n2ncc3cc(F)cnc32)cc1NC1CCC(F)C1 (some centres unmarked) [Example 621],–,–,"EC50 ([1]; human PBMCs, lipoteichoic acid stimulated): 139 nM"
–,5.9,"CC(C)CC(C)Nc1cc(-n2ccc3cc(C#N)cnc32)ncc1C(=O)NC[C@@H](F)C(C)(C)O (single isomer, unassigned) [Example 454]",–,–,"EC50 [1, 3]: 757 nM; IC50 [1, 3]: 289 nM"
11.8,–,"CC(C)Nc1cc(-n2ccc3cc(Cl)ccc32)ncc1C(=O)NC[C@@H](F)C(C)(C)O [Example 37, (R)-6-(5-chloro-1H-indol-1-yl)-N-(2-fluoro-3-hydroxy-3-methylbutyl)-4-(isopropylamino)nicotinamide]",1230,–,–
2.3,–,"CC(C)Nc1cc(-n2ccc3cc(C#N)cnc32)ncc1C(=O)NC[C@@H](F)C(C)NC(C)C (single isomer, unassigned) [Example 130]",–,–,"EC50 ([1]; PBMC TLR2 Induced IL-6 Assay, lipoteichoic acid stimulation): 99 nM"
6.8,–,CC(C)Nc1cc(-n2ncc3cc(C#N)cnc32)ncc1C(=O)Nc1ccc(CN2CCOCC2)cc1 [Example 226],248,–,–
6.4,–,"CCNc1cc(-n2ncc3cc(C#N)cnc32)ncc1C(=O)NC[C@@H](F)C(C)(C)O [Example 138, (R)-6-(5-cyano-1H-pyrazolo[3,4-b]pyridin-1-yl)-4-(ethylamino)-N-(2-fluoro-3-hydroxy-3-methylbutyl)nicotinamide]",152,–,–
3.3,–,"CC(C)Nc1cc(-n2ccc3cc(C#N)ccc32)ncc1C(=O)NC[C@@H](F)C(C)(C)O [Example 1, (R)-6-(5-Cyano-1H-indol-1-yl)-N-(2-fluoro-3-hydroxy-3-methylbutyl)-4-(isopropylamino)nicotinamide]",901,873,–
–,15.3,CC(C)(O)[C@H](F)CNC(=O)c1cnc(-n2ncc3cc(C#N)cnc32)cc1NCC(F)F [Example 574],–,–,"IC50 [1, 3]: 258 nM"
